For one data set, the target named is human CYP2C9 (Homo sapiens, UniProt P11712). To be noted: read-out: IC50 CYP2C9; recombinant human CYP2C9 15 nM, 150 μM MFC, 45 min, 37°C; mean (95% confidence interval).
The target in another data set is human CYP2C19 (Homo sapiens, UniProt P33261). To be noted: read-out: IC50 CYP2C19; recombinant human CYP2C19 7.5 nM, 25 μM CEC, 30 min, 37°C; mean (95% confidence interval).
For another data set, the target named is CYP2B6 (Homo sapiens, UniProt P20813). To be noted: concentrations up to 10 μM; pooled HLMs, 100 μM bupropion; data not shown.
Sequence of CYP2B6 (P20813 whole entry): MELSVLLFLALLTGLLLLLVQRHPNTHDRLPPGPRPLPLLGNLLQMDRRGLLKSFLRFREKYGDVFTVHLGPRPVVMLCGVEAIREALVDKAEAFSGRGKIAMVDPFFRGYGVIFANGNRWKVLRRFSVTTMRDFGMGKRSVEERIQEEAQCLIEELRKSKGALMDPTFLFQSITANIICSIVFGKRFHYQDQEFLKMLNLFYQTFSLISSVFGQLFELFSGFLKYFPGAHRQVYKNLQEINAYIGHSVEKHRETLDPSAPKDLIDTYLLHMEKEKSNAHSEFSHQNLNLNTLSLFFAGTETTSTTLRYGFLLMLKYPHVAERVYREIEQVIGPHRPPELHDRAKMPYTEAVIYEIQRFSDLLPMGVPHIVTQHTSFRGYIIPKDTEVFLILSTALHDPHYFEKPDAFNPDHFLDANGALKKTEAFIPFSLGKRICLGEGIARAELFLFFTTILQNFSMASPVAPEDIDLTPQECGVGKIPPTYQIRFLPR

Sequence of human CYP2C9 (P11712 whole entry): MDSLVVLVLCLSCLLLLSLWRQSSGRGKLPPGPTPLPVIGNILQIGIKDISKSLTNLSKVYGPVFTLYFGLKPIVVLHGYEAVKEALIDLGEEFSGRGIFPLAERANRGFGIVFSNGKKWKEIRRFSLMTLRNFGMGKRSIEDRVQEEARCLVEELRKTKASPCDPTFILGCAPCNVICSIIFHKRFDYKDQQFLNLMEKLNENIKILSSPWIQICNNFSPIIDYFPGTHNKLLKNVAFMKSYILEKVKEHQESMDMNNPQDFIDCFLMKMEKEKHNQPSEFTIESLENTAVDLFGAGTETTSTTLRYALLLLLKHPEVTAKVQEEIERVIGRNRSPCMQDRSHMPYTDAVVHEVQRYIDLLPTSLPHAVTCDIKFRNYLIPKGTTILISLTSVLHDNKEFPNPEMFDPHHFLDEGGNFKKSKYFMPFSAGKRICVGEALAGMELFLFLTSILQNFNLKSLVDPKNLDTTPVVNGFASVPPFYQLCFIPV
Sequence of human CYP2C19 (P33261 whole entry): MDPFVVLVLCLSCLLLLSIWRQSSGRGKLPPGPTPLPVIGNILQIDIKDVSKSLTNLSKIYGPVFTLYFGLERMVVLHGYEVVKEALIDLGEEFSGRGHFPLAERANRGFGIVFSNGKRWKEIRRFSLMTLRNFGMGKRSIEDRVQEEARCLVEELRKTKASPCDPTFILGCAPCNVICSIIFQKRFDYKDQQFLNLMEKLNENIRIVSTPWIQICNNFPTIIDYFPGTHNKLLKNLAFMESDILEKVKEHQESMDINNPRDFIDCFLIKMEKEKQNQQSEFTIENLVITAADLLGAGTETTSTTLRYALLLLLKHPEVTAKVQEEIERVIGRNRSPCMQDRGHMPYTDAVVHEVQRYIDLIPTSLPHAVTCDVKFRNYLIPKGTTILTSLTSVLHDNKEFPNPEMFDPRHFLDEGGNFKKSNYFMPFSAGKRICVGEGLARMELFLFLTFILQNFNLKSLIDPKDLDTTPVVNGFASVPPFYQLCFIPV

As to `O=C1C[C@H](c2ccc(O)cc2)Oc2cc(O)cc(O)c21` [(R)-naringenin], the IC50 stood at 1600 nM on human CYP2C9 and 4900 nM on human CYP2C19.
With `O=C1C[C@@H](c2ccc(O)cc2)Oc2cc(O)cc(O)c21` [(S)-naringenin], the IC50 worked out at 3400 nM at human CYP2C9 and 1200 nM at human CYP2C19.
Turning to naringenin [rac-naringenin], the “Inhibition of CYP2B6” value on CYP2B6 is “No appreciable inhibition”.

Values taken from paper PMC3252466 (Chirality, 2011).
